# Experimental data taken from the supplement of paper PMC8671470.
# System: HL-60
# Settings: 72 h
# In short: (§1)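 Fifteen myeloid leukaemia lines in RPMI 1640 were treated for 72 h at 37 °C and 5% CO2 with five tenfold doses from 1 to 10,000 nM, in duplicate. ATP luminescence was normalised to vehicle and to a positive control at 10 µM, then fitted with a four-parameter log-logistic model. The IC50 came from these fits.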
row,SMILES,IC50 (cell viability)
1,NCCCC(N)(C(=O)O)C(F)F (stereo unspecified) [Difluoromethylornithine],> 10 µM

# System: MOLM-13
# Settings: 72 h
# In short: as §1
row,SMILES,IC50 (cell viability)
1,COc1ccc(S(=O)(=O)N2CCN(S(=O)(=O)c3ccc4c(c3)OCCO4)CC2)cc1 [BML283],> 10 µM
2,O=c1cc(-c2ccccc2)oc2cc(O)c(O)c(O)c12 [Baicalein],> 10 µM
3,COC(=O)[C@]12CCC(C)(C)C[C@H]1[C@H]1C(=O)C=C3[C@@]4(C)C=C(C#N)C(=O)C(C)(C)[C@@H]4CC[C@@]3(C)[C@]1(C)CC2 [Bardoxolone methyl],> 10 µM
4,O=c1oc2c(O)c(O)cc3c(=O)oc4c(O)c(O)cc1c4c23 [Benzoaric Acid],> 10 µM
5,Cc1c(-c2ccc(-c3ccccc3F)cc2)nc2ccc(F)cc2c1C(=O)O [Brequinar],4.34 µM
6,O=C1O/C(=C/Br)CCC1c1cccc2ccccc12 (stereo unspecified) [Bromoenol Lactone],5.36 µM
7,O=C(O)CCCCC(CCSCc1ccccc1)SCc1ccccc1 (stereo unspecified) [CPI-613],> 10 µM
8,CC(C)c1cc2c(c(O)c1O)[C@@]1(C(=O)O)CCCC(C)(C)[C@@H]1CC2 [Carnosic acid],> 10 µM
9,CCN(CC)CCCC(C)Nc1ccnc2cc(Cl)ccc12 (stereo unspecified) [Chloroquine],> 10 µM
10,Nc1nc(Cl)nc2c1ncn2[C@H]1C[C@H](O)[C@@H](CO)O1 [Cladribine],0.0253 µM
11,NCCCC(N)(C(=O)O)C(F)F (stereo unspecified) [Difluoromethylornithine],> 10 µM

# System: Mono-Mac-6
# Settings: 72 h
# In short: as §1
row,SMILES,IC50 (cell viability)
1,COc1ccc(S(=O)(=O)N2CCN(S(=O)(=O)c3ccc4c(c3)OCCO4)CC2)cc1 [BML283],> 10 µM
2,O=c1cc(-c2ccccc2)oc2cc(O)c(O)c(O)c12 [Baicalein],> 10 µM
3,COC(=O)[C@]12CCC(C)(C)C[C@H]1[C@H]1C(=O)C=C3[C@@]4(C)C=C(C#N)C(=O)C(C)(C)[C@@H]4CC[C@@]3(C)[C@]1(C)CC2 [Bardoxolone methyl],0.79 µM
4,O=c1oc2c(O)c(O)cc3c(=O)oc4c(O)c(O)cc1c4c23 [Benzoaric Acid],> 10 µM
5,Cc1c(-c2ccc(-c3ccccc3F)cc2)nc2ccc(F)cc2c1C(=O)O [Brequinar],> 10 µM
6,O=C1O/C(=C/Br)CCC1c1cccc2ccccc12 (stereo unspecified) [Bromoenol Lactone],> 10 µM
7,O=C(O)CCCCC(CCSCc1ccccc1)SCc1ccccc1 (stereo unspecified) [CPI-613],> 10 µM
8,CC(C)c1cc2c(c(O)c1O)[C@@]1(C(=O)O)CCCC(C)(C)[C@@H]1CC2 [Carnosic acid],> 10 µM
9,CCN(CC)CCCC(C)Nc1ccnc2cc(Cl)ccc12 (stereo unspecified) [Chloroquine],> 10 µM
10,Nc1nc(Cl)nc2c1ncn2[C@H]1C[C@H](O)[C@@H](CO)O1 [Cladribine],0.0212 µM
11,NCCCC(N)(C(=O)O)C(F)F (stereo unspecified) [Difluoromethylornithine],> 10 µM

# System: KU-812
# Settings: 72 h
# In short: as §1
row,SMILES,IC50 (cell viability)
1,COc1ccc(S(=O)(=O)N2CCN(S(=O)(=O)c3ccc4c(c3)OCCO4)CC2)cc1 [BML283],> 10 µM
2,O=c1cc(-c2ccccc2)oc2cc(O)c(O)c(O)c12 [Baicalein],> 10 µM
3,COC(=O)[C@]12CCC(C)(C)C[C@H]1[C@H]1C(=O)C=C3[C@@]4(C)C=C(C#N)C(=O)C(C)(C)[C@@H]4CC[C@@]3(C)[C@]1(C)CC2 [Bardoxolone methyl],9.5 µM
4,O=c1oc2c(O)c(O)cc3c(=O)oc4c(O)c(O)cc1c4c23 [Benzoaric Acid],> 10 µM
5,Cc1c(-c2ccc(-c3ccccc3F)cc2)nc2ccc(F)cc2c1C(=O)O [Brequinar],> 10 µM
6,O=C1O/C(=C/Br)CCC1c1cccc2ccccc12 (stereo unspecified) [Bromoenol Lactone],5.18 µM
7,O=C(O)CCCCC(CCSCc1ccccc1)SCc1ccccc1 (stereo unspecified) [CPI-613],> 10 µM
8,CC(C)c1cc2c(c(O)c1O)[C@@]1(C(=O)O)CCCC(C)(C)[C@@H]1CC2 [Carnosic acid],> 10 µM
9,CCN(CC)CCCC(C)Nc1ccnc2cc(Cl)ccc12 (stereo unspecified) [Chloroquine],> 10 µM
10,Nc1nc(Cl)nc2c1ncn2[C@H]1C[C@H](O)[C@@H](CO)O1 [Cladribine],0.0989 µM
11,NCCCC(N)(C(=O)O)C(F)F (stereo unspecified) [Difluoromethylornithine],> 10 µM

# System: SHI-1
# Settings: 72 h
# In short: as §1
row,SMILES,IC50 (cell viability)
1,COc1ccc(S(=O)(=O)N2CCN(S(=O)(=O)c3ccc4c(c3)OCCO4)CC2)cc1 [BML283],> 10 µM
2,O=c1cc(-c2ccccc2)oc2cc(O)c(O)c(O)c12 [Baicalein],> 10 µM
3,COC(=O)[C@]12CCC(C)(C)C[C@H]1[C@H]1C(=O)C=C3[C@@]4(C)C=C(C#N)C(=O)C(C)(C)[C@@H]4CC[C@@]3(C)[C@]1(C)CC2 [Bardoxolone methyl],> 10 µM
4,O=c1oc2c(O)c(O)cc3c(=O)oc4c(O)c(O)cc1c4c23 [Benzoaric Acid],> 10 µM
5,Cc1c(-c2ccc(-c3ccccc3F)cc2)nc2ccc(F)cc2c1C(=O)O [Brequinar],> 10 µM
6,O=C1O/C(=C/Br)CCC1c1cccc2ccccc12 (stereo unspecified) [Bromoenol Lactone],> 10 µM
7,O=C(O)CCCCC(CCSCc1ccccc1)SCc1ccccc1 (stereo unspecified) [CPI-613],> 10 µM
8,CC(C)c1cc2c(c(O)c1O)[C@@]1(C(=O)O)CCCC(C)(C)[C@@H]1CC2 [Carnosic acid],> 10 µM
9,CCN(CC)CCCC(C)Nc1ccnc2cc(Cl)ccc12 (stereo unspecified) [Chloroquine],> 10 µM
10,Nc1nc(Cl)nc2c1ncn2[C@H]1C[C@H](O)[C@@H](CO)O1 [Cladribine],0.0439 µM
11,NCCCC(N)(C(=O)O)C(F)F (stereo unspecified) [Difluoromethylornithine],> 10 µM

# System: KG-1
# Settings: 72 h
# In short: as §1
row,SMILES,IC50 (cell viability)
1,COc1ccc(S(=O)(=O)N2CCN(S(=O)(=O)c3ccc4c(c3)OCCO4)CC2)cc1 [BML283],> 10 µM
2,O=c1cc(-c2ccccc2)oc2cc(O)c(O)c(O)c12 [Baicalein],6.35 µM
3,COC(=O)[C@]12CCC(C)(C)C[C@H]1[C@H]1C(=O)C=C3[C@@]4(C)C=C(C#N)C(=O)C(C)(C)[C@@H]4CC[C@@]3(C)[C@]1(C)CC2 [Bardoxolone methyl],1.09 µM
4,O=c1oc2c(O)c(O)cc3c(=O)oc4c(O)c(O)cc1c4c23 [Benzoaric Acid],> 10 µM
5,Cc1c(-c2ccc(-c3ccccc3F)cc2)nc2ccc(F)cc2c1C(=O)O [Brequinar],> 10 µM
6,O=C1O/C(=C/Br)CCC1c1cccc2ccccc12 (stereo unspecified) [Bromoenol Lactone],8.59 µM
7,O=C(O)CCCCC(CCSCc1ccccc1)SCc1ccccc1 (stereo unspecified) [CPI-613],> 10 µM
8,CC(C)c1cc2c(c(O)c1O)[C@@]1(C(=O)O)CCCC(C)(C)[C@@H]1CC2 [Carnosic acid],> 10 µM
9,CCN(CC)CCCC(C)Nc1ccnc2cc(Cl)ccc12 (stereo unspecified) [Chloroquine],> 10 µM
10,Nc1nc(Cl)nc2c1ncn2[C@H]1C[C@H](O)[C@@H](CO)O1 [Cladribine],0.384 µM
11,NCCCC(N)(C(=O)O)C(F)F (stereo unspecified) [Difluoromethylornithine],> 10 µM

# System: HEL
# Settings: 72 h
# In short: as §1
row,SMILES,IC50 (cell viability)
1,COc1ccc(S(=O)(=O)N2CCN(S(=O)(=O)c3ccc4c(c3)OCCO4)CC2)cc1 [BML283],> 10 µM
2,O=c1cc(-c2ccccc2)oc2cc(O)c(O)c(O)c12 [Baicalein],> 10 µM
3,COC(=O)[C@]12CCC(C)(C)C[C@H]1[C@H]1C(=O)C=C3[C@@]4(C)C=C(C#N)C(=O)C(C)(C)[C@@H]4CC[C@@]3(C)[C@]1(C)CC2 [Bardoxolone methyl],2.24 µM
4,O=c1oc2c(O)c(O)cc3c(=O)oc4c(O)c(O)cc1c4c23 [Benzoaric Acid],> 10 µM
5,Cc1c(-c2ccc(-c3ccccc3F)cc2)nc2ccc(F)cc2c1C(=O)O [Brequinar],1.48 µM
